Assay results reported in PubChem BioAssay AID1963868 (Molecular Pharmacology Branch, DTP, NCI, 2024).

Tested on: KRAS PDC tumor spheroids (HUVEC+MSC), viability
Test: Anticancer human tumor 254851-301-R-J1-PDC patient-derived colon carcinoma cell line growth inhibition [KRAS2]
Conditions: for viability, T/C: stronger effect = lower value; for IC50: curve of first compound
Method in brief: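 Combination screen of spheroid viability in tumor-cell co-cultures with endothelial (HUVEC) and mesenchymal stem cell stroma. Each agent was tested in half-log dilutions, topping at clinical Cmax or at 10 microM without a known Cmax.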

[1] = second compound 0.1 µM, first compound 0.0316 µM
[2] = second compound 0.1 µM, first compound 0.1 µM
[3] = second compound 0.1 µM, first compound 0.316 µM
[4] = second compound 0.1 µM, first compound 1 µM
[5] = second compound 0.1 µM, first compound 3.16 µM
[6] = second compound 0.316 µM, first compound 0.0316 µM
[7] = second compound 0.316 µM, first compound 0.1 µM
[8] = second compound 0.316 µM, first compound 0.316 µM
[9] = second compound 0.316 µM, first compound 1 µM
[10] = second compound 0.316 µM, first compound 3.16 µM
[11] = second compound 1 µM, first compound 0.0316 µM
[12] = second compound 1 µM, first compound 0.1 µM
[13] = second compound 1 µM, first compound 0.316 µM
[14] = second compound 1 µM, first compound 1 µM
[15] = second compound 1 µM, first compound 3.16 µM
[16] = second compound 3.16 µM, first compound 0.0316 µM
[17] = second compound 3.16 µM, first compound 0.1 µM
[18] = second compound 3.16 µM, first compound 0.316 µM
[19] = second compound 3.16 µM, first compound 1 µM
[20] = second compound 3.16 µM, first compound 3.16 µM
[21] = second compound 10 µM, first compound 0.0316 µM
[22] = second compound 10 µM, first compound 0.1 µM
[23] = second compound 10 µM, first compound 0.316 µM
[24] = second compound 10 µM, first compound 1 µM
[25] = second compound 10 µM, first compound 3.16 µM
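Further: spheroids exposed to compounds for seven days before readout.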
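Wherever viability, T/C is given: 100% = DMSO vehicle control luminescence of the spheroids.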

| SMILES | IC50 (second compound 0.1 µM) | IC50 (second compound 0.316 µM) | IC50 (second compound 1 µM) | IC50 (second compound 3.16 µM) | IC50 (second compound 10 µM) | viability, T/C [1] | viability, T/C [2] | viability, T/C [3] | viability, T/C [4] | viability, T/C [5] | viability, T/C [6] | viability, T/C [7] | viability, T/C [8] | viability, T/C [9] | viability, T/C [10] | viability, T/C [11] | viability, T/C [12] | viability, T/C [13] | viability, T/C [14] | viability, T/C [15] | further results |
| --- | --- | --- | --- | --- | --- | --- | --- | --- | --- | --- | --- | --- | --- | --- | --- | --- | --- | --- | --- | --- | --- |
| CC1COCCN1c1cc(-c2ccnn2C)c2ccnc(-c3ccn[nH]3)c2n1 (centres undefined) |  |  |  |  |  |  |  |  |  |  |  |  |  |  |  |  |  |  |  |  | viability, T/C (compound 0.01 µM): 99.3% [middle of 5 runs]; viability, T/C (compound 0.316 µM): 47.7% [middle of 5 runs]; viability, T/C (compound 1 µM): 38.6% [middle of 5 runs]; viability, T/C (compound 3.16 µM): 24.1% [middle of 5 runs] |
| CC1COCCN1c1cc(-c2ccnn2C)c2ccnc(-c3ccn[nH]3)c2n1 (centres undefined) + CNCc1ccccc1-c1csc(C(C)Nc2nc(C)nc3cc(OC)c(OC)cc23)c1 | 278 nM | 217 nM | 252 nM | < 10 nM | < 10 nM | 103% | 60.1% | 50.7% | 36% | 20.1% | 93.9% | 64.4% | 42.9% | 34.3% | 25.9% | 93.4% | 70.4% | 44.9% | 31% | 24.1% | viability, T/C (second compound 0.1 µM, first compound 0.01 µM): 107%; viability, T/C (second compound 0.316 µM, first compound 0.01 µM): 91.9%; viability, T/C (second compound 1 µM, first compound 0.01 µM): 95.5%; viability, T/C (second compound 3.16 µM, first compound 0.01 µM): 44.1%; viability, T/C [16]: 35.2%; viability, T/C [17]: 31.2%; viability, T/C [18]: 14.6%; viability, T/C [19]: 26.8%; viability, T/C [20]: 17%; viability, T/C (second compound 10 µM, first compound 0.01 µM): 0.08%; viability, T/C [21]: 0.08%; viability, T/C [22]: 0.07%; viability, T/C [23]: 0.99%; viability, T/C [24]: 0.07%; viability, T/C [25]: 0.12% |
| COc1cc2nccc(Oc3ccc(NC(=O)C4(C(=O)Nc5ccc(F)cc5)CC4)cc3)c2cc1OC + C=CC(=O)N1CCN(c2nc(=O)n(-c3c(C)ccnc3C(C)C)c3nc(-c4c(O)cccc4F)c(F)cc23)C(C)C1 | > 10000 nM | > 10000 nM | > 10000 nM | > 10000 nM | > 10000 nM | 108% | 102% | 99.3% | 110% | 104% | 104% | 107% | 113% | 110% | 99.4% | 109% | 115% | 113% | 103% | 104% | viability, T/C (second compound 0.1 µM, first compound 10 µM): 65.9%; viability, T/C (second compound 0.316 µM, first compound 10 µM): 57.4%; viability, T/C (second compound 1 µM, first compound 10 µM): 74.8%; viability, T/C [16]: 114%; viability, T/C [17]: 112%; viability, T/C [18]: 111%; viability, T/C [19]: 117%; viability, T/C [20]: 108%; viability, T/C (second compound 3.16 µM, first compound 10 µM): 72.1%; viability, T/C [21]: 131%; viability, T/C [22]: 115%; viability, T/C [23]: 111%; viability, T/C [24]: 112%; viability, T/C [25]: 90.8%; viability, T/C (second compound 10 µM, first compound 10 µM): 62.6% |
